Measured values taken from ChEMBL document CHEMBL1201862, “PubChem BioAssay data set” (2004).
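In this assay, cells in 96-well plates receive the compound at five concentrations for 48 hours. Endpoints are linearly interpolated between the surrounding concentrations. At the GI50, growth is halved.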 Calls of active or inactive are those of the source. Cut-off read from the data, not from the text of the source: active = GI50 up to about 1.1 µM and inactive = higher.

Assays:
Experiment in all cases: inhibition of tumour cell growth, NCI panel, 48 h
A498 = tested on: A498
CAKI-1 = tested on: CAKI-1
CCRF-CEM = tested on: CCRF-CEM
COLO 205 = tested on: COLO 205
EKVX = tested on: EKVX
HCC 2998 = tested on: HCC 2998
HCT-116 = tested on: HCT-116
HL-60 = tested on: HL-60
KM12 = tested on: KM12
NCI-H460 = tested on: NCI-H460
SK-MEL-5 = tested on: SK-MEL-5
SNB-19 = tested on: SNB-19
TK-10 = tested on: TK-10
UACC-257 = tested on: UACC-257
UACC-62 = tested on: UACC-62
NCI-H522 = tested on: NCI-H522
OVCAR-4 = tested on: OVCAR-4

Measured: GI50

Cc1nc(-c2nc(C)c(C(=O)/C=C/c3ccc([N+](=O)[O-])cc3)s2)sc1C(=O)/C=C/c1ccc([N+](=O)[O-])cc1
inactive: A498 > 100 µM | CAKI-1 > 100 µM | CCRF-CEM > 10 µM | COLO 205 > 100 µM | EKVX > 100 µM | HCC 2998 > 100 µM | HCT-116 > 100 µM | HL-60 > 100 µM | KM12 > 100 µM | NCI-H460 > 100 µM | SK-MEL-5 > 100 µM | SNB-19 > 100 µM | TK-10 > 100 µM | UACC-257 > 100 µM | UACC-62 > 100 µM

[N-]=[N+]=N[C@H]1C[C@@H](CO)O[C@H]1n1cnc2c(N)ncnc21
inactive: CAKI-1 > 100 µM | COLO 205 > 100 µM | EKVX 57.4 µM | HCC 2998 > 100 µM | HCT-116 > 100 µM | HL-60 > 100 µM | KM12 > 100 µM | NCI-H460 > 100 µM | NCI-H522 > 100 µM | OVCAR-4 > 100 µM | SK-MEL-5 > 100 µM | SNB-19 > 100 µM | TK-10 > 100 µM | UACC-257 > 100 µM

COc1ccccc1NC(=O)C1=C(C)NC(C)=C(C(=O)Nc2ccccc2OC)C1c1cccc2ccccc12
inactive: A498 33.9 µM | CAKI-1 68.1 µM | CCRF-CEM 20.7 µM | COLO 205 > 100 µM | EKVX > 100 µM | HCC 2998 83.8 µM | HCT-116 23.8 µM | HL-60 29.9 µM | KM12 37.8 µM | NCI-H460 20.1 µM | OVCAR-4 2.77 µM | SK-MEL-5 34.4 µM | SNB-19 53 µM | TK-10 > 100 µM | UACC-257 > 100 µM | UACC-62 > 100 µM

Cc1cc(C)nc(NS(=O)(=O)c2ccc(Nc3c4ccc(Cl)cc4nc4c(C(=O)Nc5ccc(S(=O)(=O)N=C(N)N)cc5)cccc34)cc2)n1
inactive: A498 > 100 µM | CCRF-CEM 20.6 µM | EKVX > 100 µM | HCC 2998 > 100 µM | HCT-116 54.3 µM | KM12 > 100 µM | NCI-H460 > 100 µM | NCI-H522 34.4 µM | OVCAR-4 > 100 µM | SNB-19 > 100 µM | TK-10 98.6 µM | UACC-257 > 100 µM | UACC-62 70.8 µM

C#CCNC(=O)ON1C(=O)CCC1=O
inactive: A498 > 100 µM | CCRF-CEM > 100 µM | COLO 205 > 100 µM | EKVX > 100 µM | HCT-116 > 100 µM | HL-60 > 100 µM | KM12 > 100 µM | NCI-H460 > 100 µM | NCI-H522 > 100 µM | OVCAR-4 > 100 µM | SNB-19 > 100 µM | TK-10 > 100 µM | UACC-257 > 100 µM | UACC-62 > 100 µM

COc1cc2c(cc1OC)NC(=O)NC(Cc1ccc3c(c1)OCO3)CC2 (stereo not drawn)
inactive: CAKI-1 > 100 µM | CCRF-CEM > 100 µM | COLO 205 > 100 µM | EKVX > 100 µM | HCC 2998 > 100 µM | HL-60 > 100 µM | KM12 > 100 µM | NCI-H460 > 100 µM | NCI-H522 29 µM | OVCAR-4 > 100 µM | SK-MEL-5 > 100 µM | SNB-19 > 100 µM | TK-10 > 100 µM | UACC-257 > 100 µM | UACC-62 > 100 µM

O=C(/C=C/c1ccccc1Cl)c1ccc(Cl)cc1Cl
inactive: A498 18.8 µM | CAKI-1 14.4 µM | CCRF-CEM 4.02 µM | COLO 205 18.1 µM | EKVX 18.9 µM | HCC 2998 19.1 µM | HCT-116 8.47 µM | HL-60 16.5 µM | KM12 11.4 µM | NCI-H460 17.3 µM | OVCAR-4 15.6 µM | SK-MEL-5 15.3 µM | SNB-19 15.5 µM | TK-10 17.7 µM | UACC-257 15.9 µM | UACC-62 14.5 µM
